Test results: the NIST ThermoML archive (doi:10.1016/j.jct.2004.11.020)
± gives the expanded uncertainty stated by the source.

Key:
[1] = xn = mol fraction of the nth substance listed; details: 308.15 K, 101 kPa, Liquid; for speed of sound: Pulse-echo method
[2] = 308.15 K, 101.33 kPa, Liquid

SMILES: OCCCCO [1,4-butanediol] + O=C1CCCN1
- speed of sound ([1]; x2 = 0.0265): 1579.3 ± 1.5 m/s
- speed of sound ([1]; x2 = 0.0524): 1580.6 ± 1.5 m/s
- speed of sound ([1]; x2 = 0.0746): 1581.5 ± 1.5 m/s
- speed of sound ([1]; x2 = 0.099): 1582.3 ± 1.5 m/s
- speed of sound ([1]; x2 = 0.1515): 1583.7 ± 1.5 m/s
- speed of sound ([1]; x2 = 0.197): 1585.2 ± 1.5 m/s
- speed of sound ([1]; x2 = 0.2914): 1587.8 ± 1.5 m/s
- speed of sound ([1]; x2 = 0.3911): 1589.6 ± 1.5 m/s
- speed of sound ([1]; x2 = 0.4533): 1590.3 ± 1.5 m/s
- speed of sound ([1]; x2 = 0.5237): 1591.3 ± 1.5 m/s
- speed of sound ([1]; x2 = 0.5997): 1592.6 ± 1.5 m/s
- speed of sound ([1]; x2 = 0.6904): 1593.7 ± 1.5 m/s
- speed of sound ([1]; x2 = 0.7878): 1595 ± 1.5 m/s
- speed of sound ([1]; x2 = 0.8877): 1596.8 ± 1.5 m/s
- speed of sound ([1]; x2 = 0.9305): 1598 ± 1.5 m/s
- speed of sound ([1]; x2 = 0.9481): 1598.5 ± 1.5 m/s
- speed of sound ([1]; x2 = 0.9741): 1599.2 ± 1.5 m/s
- excess molar volume ([1]; x2 = 0.0144): -1e-09 ± 9e-09 m3/mol
- viscosity ([1]; x2 = 0.0265): 44.47 ± 1.3 mPa·s
- excess molar volume ([1]; x2 = 0.0335): -2e-09 ± 9e-09 m3/mol
- viscosity ([1]; x2 = 0.0524): 42.37 ± 1.2 mPa·s
- excess molar volume ([1]; x2 = 0.0631): -5e-09 ± 9e-09 m3/mol
- viscosity ([1]; x2 = 0.0746): 40.73 ± 1.1 mPa·s
- excess molar volume ([1]; x2 = 0.0859): -7e-09 ± 9e-09 m3/mol
- viscosity ([1]; x2 = 0.099): 39.16 ± 1.1 mPa·s
- excess molar volume ([1]; x2 = 0.1034): -1.2e-08 ± 9e-09 m3/mol
- excess molar volume ([1]; x2 = 0.1244): -1.6e-08 ± 9e-09 m3/mol
- excess molar volume ([1]; x2 = 0.133): -1.8e-08 ± 9e-09 m3/mol
- excess molar volume ([1]; x2 = 0.1495): -2.2e-08 ± 9e-09 m3/mol
- viscosity ([1]; x2 = 0.1515): 35.63 ± 0.97 mPa·s
- excess molar volume ([1]; x2 = 0.1707): -2.4e-08 ± 9e-09 m3/mol
- excess molar volume ([1]; x2 = 0.1835): -2.6e-08 ± 9e-09 m3/mol
- excess molar volume ([1]; x2 = 0.1968): -2.7e-08 ± 9e-09 m3/mol
- viscosity ([1]; x2 = 0.197): 32.87 ± 0.88 mPa·s
- excess molar volume ([1]; x2 = 0.2205): -2.8e-08 ± 9e-09 m3/mol
- excess molar volume ([1]; x2 = 0.2428): -2.9e-08 ± 9e-09 m3/mol
- excess molar volume ([1]; x2 = 0.2649): -2.7e-08 ± 9e-09 m3/mol
- excess molar volume ([1]; x2 = 0.2863): -2.6e-08 ± 9e-09 m3/mol
- viscosity ([1]; x2 = 0.2914): 27.93 ± 0.73 mPa·s
- excess molar volume ([1]; x2 = 0.3121): -2.6e-08 ± 9e-09 m3/mol
- excess molar volume ([1]; x2 = 0.3339): -2.2e-08 ± 9e-09 m3/mol
- excess molar volume ([1]; x2 = 0.3582): -2e-08 ± 9e-09 m3/mol
- excess molar volume ([1]; x2 = 0.384): -1.5e-08 ± 9e-09 m3/mol
- viscosity ([1]; x2 = 0.3911): 23.57 ± 0.61 mPa·s
- excess molar volume ([1]; x2 = 0.4202): -1.1e-08 ± 9e-09 m3/mol
- excess molar volume ([1]; x2 = 0.4438): -9e-09 ± 9e-09 m3/mol
- excess molar volume ([1]; x2 = 0.4656): -7e-09 ± 9e-09 m3/mol
- excess molar volume ([1]; x2 = 0.4771): -4e-09 ± 9e-09 m3/mol
- excess molar volume ([1]; x2 = 0.4954): -2e-09 ± 9e-09 m3/mol
- excess molar volume ([1]; x2 = 0.5159): -2e-09 ± 9e-09 m3/mol
- viscosity ([1]; x2 = 0.5237): 19.22 ± 0.49 mPa·s
- excess molar volume ([1]; x2 = 0.527): 0 ± 9e-09 m3/mol
- excess molar volume ([1]; x2 = 0.5409): 1e-09 ± 9e-09 m3/mol
- excess molar volume ([1]; x2 = 0.5644): 4e-09 ± 9e-09 m3/mol
- excess molar volume ([1]; x2 = 0.5753): 6e-09 ± 9e-09 m3/mol
- excess molar volume ([1]; x2 = 0.5886): 7e-09 ± 9e-09 m3/mol
- viscosity ([1]; x2 = 0.5997): 17.1 ± 0.44 mPa·s
- excess molar volume ([1]; x2 = 0.6032): 8e-09 ± 9e-09 m3/mol
- excess molar volume ([1]; x2 = 0.6155): 1e-08 ± 9e-09 m3/mol
- excess molar volume ([1]; x2 = 0.6273): 1.3e-08 ± 9e-09 m3/mol
- excess molar volume ([1]; x2 = 0.6452): 2e-08 ± 9e-09 m3/mol
- excess molar volume ([1]; x2 = 0.6685): 2.2e-08 ± 9e-09 m3/mol
- excess molar volume ([1]; x2 = 0.6788): 2.3e-08 ± 9e-09 m3/mol
- viscosity ([1]; x2 = 0.6904): 14.81 ± 0.38 mPa·s
- excess molar volume ([1]; x2 = 0.6925): 2.4e-08 ± 9e-09 m3/mol
- excess molar volume ([1]; x2 = 0.7159): 2.5e-08 ± 9e-09 m3/mol
- excess molar volume ([1]; x2 = 0.7338): 2.6e-08 ± 9e-09 m3/mol
- excess molar volume ([1]; x2 = 0.7494): 2.7e-08 ± 9e-09 m3/mol
- viscosity ([1]; x2 = 0.7878): 12.92 ± 0.33 mPa·s
- viscosity ([1]; x2 = 0.8877): 10.74 ± 0.28 mPa·s
- viscosity ([1]; x2 = 0.9305): 10.14 ± 0.26 mPa·s
- viscosity ([1]; x2 = 0.9481): 9.772 ± 0.26 mPa·s
- viscosity ([1]; x2 = 0.9741): 9.275 ± 0.24 mPa·s

SMILES: CC(O)CCO (stereo unspecified) [1,3-butanediol]
- mass density [2]: 991.28 ± 0.53 kg/m3
- viscosity [2]: 54.24 ± 1.2 mPa·s
- speed of sound ([2]; Pulse-echo method): 1496 ± 1.5 m/s
